≈ marks a conversion by molar mass, not a printed value.
Experiments:
[1] = tested on: Mycobacterium tuberculosis; assay: Antimycobacterial activity against Mycobacterium tuberculosis H37Rv after 3 days by radiorespirometric assay; assay type: functional; details: 72 h
Vero = assay: Cytotoxicity against african green monkey Vero cells after 72 hrs; assay type: cell-based; details: Chlorocebus sabaeus

Work on `C[C@H](CC[C@H]1OC1(C)C)[C@H]1CC[C@@]2(C)[C@@H]3CC[C@H]4C(C)(C)[C@@H](O)CC[C@@]45C[C@@]35CC[C@]12C` yielded an MIC [1] of 8 µg/mL (≈ 18.1 µM) and an IC50 (Vero) of 39.8 µg/mL (≈ 89.9 µM).

`CC(C)=C[C@H](O)C[C@@H](C)[C@H]1CC[C@@]2(C)C3=C(CC[C@]12C)[C@@]1(C)CCC(=O)C(C)(C)[C@@H]1CC3` was tested, and the MIC [1] was 64 µg/mL (≈ 145 µM) and the IC50 (Vero) was 104 µg/mL (≈ 235 µM).

`C[C@@H]1CC[C@H](C(C)(C)O)O[C@H]2C[C@@]3(C)[C@@H]4CC[C@H]5C(C)(C)C(=O)CC[C@@]56C[C@@]46CC[C@]3(C)[C@@H]12` [ARGENTATINE B] gave an MIC [1] of over 128 µg/mL.

`CC(=O)O[C@H]1C[C@@]2(C)[C@@H](C[C@@H](O)[C@H]3[C@@]4(C)CC[C@@H](O)[C@@H](C)[C@@H]4CC[C@@]32C)/C1=C(\CCC=C(C)C)C(=O)O` [FUSIDIC ACID] showed an MIC [1] of 4 µg/mL (≈ 7.74 µM) and an IC50 (Vero) of 106 µg/mL (≈ 205 µM).

`CC(C)(O)[C@@H]1CC[C@](C)([C@H]2C(O)C[C@@]3(C)[C@@H]4CC[C@H]5C(C)(C)C(=O)CC[C@@]56C[C@@]46CC[C@]23C)O1` (stereo partly specified) [ARGENTATINE A] was tested, and the MIC [1] was over 128 µg/mL.

Work on `C[C@H](CC[C@H]1OC1(C)C)[C@H]1CC[C@@]2(C)[C@@H]3CC[C@H]4C(C)(C)C(=O)CC[C@@]45C[C@@]35CC[C@]12C` yielded an MIC [1] of 8 µg/mL (≈ 18.2 µM) and an IC50 (Vero) of 71.8 µg/mL (≈ 163 µM).

`CC(=O)O[C@H]1CC[C@]23C[C@]24CC[C@]2(C)[C@@H]([C@H](C)CC[C@H]5OC5(C)C)CC[C@@]2(C)[C@@H]4CC[C@H]3C1(C)C` showed an MIC [1] of over 128 µg/mL.
